Measured values: ChEMBL document CHEMBL1201862, “PubChem BioAssay data set” (2004)
Active and inactive are the calls of the source.

Key:
Mu-type opioid receptor = Mu-type opioid receptor (Homo sapiens, UniProt P35372); assay: (§1) Counterscreen for agonists of heterodimerization of the mu 1 (OPRM1) and delta 1 (OPRD1) opioid receptors: Luminescence-based cell-based high throughput dose response assay to identify agonists of OPRM1 homodimerization.; assay type: functional
[1] = biological target: T1, Short transient receptor potential channel 4 (Mus musculus, UniProt Q9QUQ5); assay: mouse TRPC4 channel activators, dose response, cell-based, HEK293 TRPC4/mu-opioid, Fluo-4 calcium (AID 434937); assay type: functional
T1 sequence (Q9QUQ5 whole entry): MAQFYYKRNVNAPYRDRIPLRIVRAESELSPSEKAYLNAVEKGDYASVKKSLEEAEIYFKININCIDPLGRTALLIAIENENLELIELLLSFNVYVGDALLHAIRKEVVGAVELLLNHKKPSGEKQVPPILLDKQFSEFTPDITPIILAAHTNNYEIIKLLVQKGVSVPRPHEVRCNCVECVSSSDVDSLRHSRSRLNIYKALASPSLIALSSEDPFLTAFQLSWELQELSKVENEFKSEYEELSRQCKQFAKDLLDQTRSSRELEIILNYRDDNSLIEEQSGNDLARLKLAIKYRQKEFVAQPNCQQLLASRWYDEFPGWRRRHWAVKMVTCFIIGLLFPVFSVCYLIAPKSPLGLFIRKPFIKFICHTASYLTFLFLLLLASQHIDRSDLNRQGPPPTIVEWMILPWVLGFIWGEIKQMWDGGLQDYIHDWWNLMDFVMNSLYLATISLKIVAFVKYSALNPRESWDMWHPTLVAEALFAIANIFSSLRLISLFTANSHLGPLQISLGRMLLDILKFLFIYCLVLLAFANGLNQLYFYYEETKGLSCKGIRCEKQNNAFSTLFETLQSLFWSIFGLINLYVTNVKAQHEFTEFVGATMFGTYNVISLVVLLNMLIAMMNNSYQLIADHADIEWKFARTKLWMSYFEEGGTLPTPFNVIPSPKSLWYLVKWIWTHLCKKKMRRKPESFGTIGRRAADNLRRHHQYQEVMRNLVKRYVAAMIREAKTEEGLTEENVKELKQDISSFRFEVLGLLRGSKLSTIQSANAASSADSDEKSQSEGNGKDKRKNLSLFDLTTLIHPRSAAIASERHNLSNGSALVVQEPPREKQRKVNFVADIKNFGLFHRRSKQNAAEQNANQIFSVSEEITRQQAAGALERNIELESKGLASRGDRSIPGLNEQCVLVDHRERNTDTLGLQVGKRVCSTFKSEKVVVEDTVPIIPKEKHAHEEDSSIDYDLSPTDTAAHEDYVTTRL

[2] = biological target: Delta-type opioid receptor (Homo sapiens, UniProt P41143); assay: as §1, with “of OPRD1” for “of OPRM1”, “homodimerization. [Related pubchem assays (depositor defined):AID504326, AID504355, AID504692, AID504904, AID504905]” for “homodimerization.”; assay type: functional
[3] = biological target: 5-hydroxytryptamine receptor 5A (Homo sapiens, UniProt P47898); assay: Counterscreen for agonists of OPRM1-OPRD1 heterodimerization: luminescence-based cell-based high throughput dose response assay to identify agonists of 5-hydroxytryptamine (serotonin) 5A receptor (HTR5A). [Related pubchem assays (depositor defined):AID504326, AID504355, AID504692, AID504904, AID504905]; assay type: functional
[4] = cytotoxicity in MIN6 insulinoma cells, dose response, cytotoxicity control, cell-based, mouse insulinoma (AID 2122); assay type: functional;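 note: confirmatory high-throughput counterscreen run to flag cytotoxic compounds; mouse MIN-6 beta cells carrying an insulin promoter eGFP reporter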
INS1 = assay: beta cell apoptosis inhibitors, cytokine rescue, dose response, luminescence, retest (AID 449756); assay type: functional, cell-based; conditions: Rattus norvegicus;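 note: cell death triggered by IL-1 beta plus TNF-alpha plus IFN-gamma mixture; protective hits raise ATP signal compared with cytokine alone wells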
[5] = Shn3 3'UTR reporter inhibitors, dose response, cell-based, Clone20 osteoblasts, firefly luciferase, cherry-picked (AID 624132); assay type: functional;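 note: firefly luciferase luminescence from reporter carrying the Shn3 3'UTR in osteoblasts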
[6] = insulin promoter down-regulators in MIN6 cells, imaging, high-content screening, mouse beta cells (AID 1628); assay type: functional
[7] = biological target: T2, COUP transcription factor 2 (Homo sapiens, UniProt P24468); assay: Luminescence-based cell-based high throughput dose response assay to identify inhibitors of COUP-TFII (NR2F2).; assay type: functional;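 note: HEK293 cells transiently cotransfected with COUP-TFII expression vector and reporter; luciferase reporter luminescence driven by COUP-TFII from the pX2-168 reporter plasmid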
T2 sequence (P24468 whole entry): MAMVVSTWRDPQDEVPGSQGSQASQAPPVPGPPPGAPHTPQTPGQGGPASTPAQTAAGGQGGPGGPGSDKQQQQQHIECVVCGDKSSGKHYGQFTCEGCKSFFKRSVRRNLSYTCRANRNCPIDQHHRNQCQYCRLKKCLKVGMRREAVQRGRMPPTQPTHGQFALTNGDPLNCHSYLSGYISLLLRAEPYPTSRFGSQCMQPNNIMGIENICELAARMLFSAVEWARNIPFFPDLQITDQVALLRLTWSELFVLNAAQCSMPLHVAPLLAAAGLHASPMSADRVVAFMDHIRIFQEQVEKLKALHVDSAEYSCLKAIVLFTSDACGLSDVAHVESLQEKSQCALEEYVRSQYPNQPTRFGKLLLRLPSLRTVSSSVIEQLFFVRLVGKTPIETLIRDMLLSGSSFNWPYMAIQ

[8] = control 3'UTR Renilla luciferase suppression, dose response, counter-screen for Shn3 inhibitor project, cell-based, Clone20-Shn3RL, cherry-picked (AID 624133); assay type: functional
[9] = HepG2 cell cytotoxicity, dose response, cytotoxicity control for Shn3 inhibitor project, CellTiter-Glo, cherry-picked (AID 624134); assay type: functional, cell-based
[10] = cytotoxicity in HEK-293T cells, dose response, cytotoxicity control for TCR NF-kB inhibitor project, luminescence, T-cell screen hits (AID 489026); assay type: functional, cell-based;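 note: cells exposed to compound about 14 hours before the viability readout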
[11] = biological target: T3, Tyrosine-protein phosphatase non-receptor type 22 (Homo sapiens, UniProt Q9Y2R2); assay type: functional
T3 sequence (Q9Y2R2 whole entry): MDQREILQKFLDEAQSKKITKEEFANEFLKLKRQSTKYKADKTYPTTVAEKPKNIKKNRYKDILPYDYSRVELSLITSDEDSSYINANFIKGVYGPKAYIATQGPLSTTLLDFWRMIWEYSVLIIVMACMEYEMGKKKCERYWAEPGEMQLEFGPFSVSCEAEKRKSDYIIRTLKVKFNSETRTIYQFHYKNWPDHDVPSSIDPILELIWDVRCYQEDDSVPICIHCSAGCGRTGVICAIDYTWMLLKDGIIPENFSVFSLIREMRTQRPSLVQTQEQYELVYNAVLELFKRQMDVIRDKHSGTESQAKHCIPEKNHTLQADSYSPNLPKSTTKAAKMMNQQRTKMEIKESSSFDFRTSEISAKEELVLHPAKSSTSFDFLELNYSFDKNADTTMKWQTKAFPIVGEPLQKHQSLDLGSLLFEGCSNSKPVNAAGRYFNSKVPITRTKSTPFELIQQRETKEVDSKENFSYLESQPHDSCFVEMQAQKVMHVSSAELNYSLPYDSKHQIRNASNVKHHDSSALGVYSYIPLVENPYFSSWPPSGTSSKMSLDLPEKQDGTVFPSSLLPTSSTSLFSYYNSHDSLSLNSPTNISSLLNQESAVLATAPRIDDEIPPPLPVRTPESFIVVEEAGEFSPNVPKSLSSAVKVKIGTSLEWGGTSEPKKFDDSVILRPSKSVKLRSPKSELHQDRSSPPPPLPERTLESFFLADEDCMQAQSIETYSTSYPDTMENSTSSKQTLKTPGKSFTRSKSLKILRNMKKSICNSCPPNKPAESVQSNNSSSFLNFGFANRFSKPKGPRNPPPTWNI

[12] = biological target: T4, Rac GTPase-activating protein 1 (Homo sapiens, UniProt Q9H0H5); assay: MgcRacGAP GTPase-activating activity inhibitors, confirmation, biochemical, ADP Hunter fluorescence, primary and confirmatory (AID 624330); assay type: functional
T4 sequence (Q9H0H5 whole entry): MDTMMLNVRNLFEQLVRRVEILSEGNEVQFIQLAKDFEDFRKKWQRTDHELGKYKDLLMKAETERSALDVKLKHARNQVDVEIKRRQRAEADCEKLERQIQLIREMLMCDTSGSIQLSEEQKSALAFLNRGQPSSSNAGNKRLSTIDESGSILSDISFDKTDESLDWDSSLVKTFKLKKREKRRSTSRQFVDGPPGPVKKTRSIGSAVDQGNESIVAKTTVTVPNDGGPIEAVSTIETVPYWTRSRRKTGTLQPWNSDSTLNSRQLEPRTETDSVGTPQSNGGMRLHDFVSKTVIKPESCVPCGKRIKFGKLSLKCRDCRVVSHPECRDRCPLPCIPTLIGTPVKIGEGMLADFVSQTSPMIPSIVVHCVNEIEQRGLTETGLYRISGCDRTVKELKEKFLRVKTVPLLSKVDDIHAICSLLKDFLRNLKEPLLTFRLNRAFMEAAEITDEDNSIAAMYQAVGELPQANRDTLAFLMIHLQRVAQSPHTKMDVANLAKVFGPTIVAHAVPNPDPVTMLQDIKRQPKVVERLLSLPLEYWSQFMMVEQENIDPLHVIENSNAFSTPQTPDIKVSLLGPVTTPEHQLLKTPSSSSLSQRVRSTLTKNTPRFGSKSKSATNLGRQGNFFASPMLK

[13] = biological target: T5, Tyrosine-protein phosphatase non-receptor type 7 (Homo sapiens, UniProt P35236); assay type: functional
T5 sequence (P35236 whole entry): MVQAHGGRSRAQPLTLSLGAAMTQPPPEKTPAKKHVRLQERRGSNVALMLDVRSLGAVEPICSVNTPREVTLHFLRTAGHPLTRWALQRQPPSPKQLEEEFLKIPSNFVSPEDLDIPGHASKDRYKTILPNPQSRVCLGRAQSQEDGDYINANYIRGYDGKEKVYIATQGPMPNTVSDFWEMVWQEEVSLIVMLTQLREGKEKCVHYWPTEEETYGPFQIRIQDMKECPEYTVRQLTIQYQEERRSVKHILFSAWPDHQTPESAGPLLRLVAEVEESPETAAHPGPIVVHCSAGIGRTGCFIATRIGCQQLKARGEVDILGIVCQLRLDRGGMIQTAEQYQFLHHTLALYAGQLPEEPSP

[14] = biological target: T3, Tyrosine-protein phosphatase non-receptor type 22; assay type: functional; remark: listed apart in the source
CAAX prenyl protease 2 [15] = biological target: T6, CAAX prenyl protease 2 (Saccharomyces cerevisiae S288c, UniProt Q03530); assay type: biochemical
T6 sequence (Q03530 whole entry): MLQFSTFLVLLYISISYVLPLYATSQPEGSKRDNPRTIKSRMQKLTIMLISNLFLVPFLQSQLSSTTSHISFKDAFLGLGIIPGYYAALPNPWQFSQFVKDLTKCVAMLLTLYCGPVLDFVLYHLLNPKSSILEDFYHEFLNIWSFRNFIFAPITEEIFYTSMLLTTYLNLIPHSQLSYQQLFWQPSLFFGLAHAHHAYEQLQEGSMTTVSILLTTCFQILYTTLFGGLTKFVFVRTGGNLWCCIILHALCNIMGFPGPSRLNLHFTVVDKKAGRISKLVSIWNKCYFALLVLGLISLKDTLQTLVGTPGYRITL

CAAX prenyl protease 2 [16] = biological target: CAAX prenyl protease 2 (Homo sapiens, UniProt Q9Y256); assay: human Rce1 protease inhibitors, dose response, biochemical, yeast membranes, quenched-peptide fluorescence, cherry-pick (AID 588849)
Trypsin = Trypsin (Sus scrofa, UniProt P00761); assay: porcine trypsin inhibitors, dose response, selectivity assay for Rce1 protease inhibitor project, biochemical, quenched peptide fluorescence, cherry-pick (AID 488789)
Chain of Trypsin (P00761 whole entry): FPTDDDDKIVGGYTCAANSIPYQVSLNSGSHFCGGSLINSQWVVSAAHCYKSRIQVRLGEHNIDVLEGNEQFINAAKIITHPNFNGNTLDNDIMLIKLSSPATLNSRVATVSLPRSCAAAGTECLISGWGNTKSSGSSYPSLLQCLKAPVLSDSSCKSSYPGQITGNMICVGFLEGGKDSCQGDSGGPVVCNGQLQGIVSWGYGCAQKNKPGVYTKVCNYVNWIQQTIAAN

Chain of 5-hydroxytryptamine receptor 5A (P47898 whole entry): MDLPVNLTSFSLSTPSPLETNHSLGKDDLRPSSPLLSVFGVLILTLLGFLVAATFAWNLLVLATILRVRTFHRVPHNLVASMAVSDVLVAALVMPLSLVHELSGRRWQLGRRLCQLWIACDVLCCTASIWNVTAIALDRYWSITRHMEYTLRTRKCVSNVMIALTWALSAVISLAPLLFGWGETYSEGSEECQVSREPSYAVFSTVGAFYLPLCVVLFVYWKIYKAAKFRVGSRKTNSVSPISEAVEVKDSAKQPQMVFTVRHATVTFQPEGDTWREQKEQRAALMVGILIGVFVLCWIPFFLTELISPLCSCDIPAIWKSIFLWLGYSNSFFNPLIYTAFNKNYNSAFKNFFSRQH
Chain of Mu-type opioid receptor (P35372 whole entry): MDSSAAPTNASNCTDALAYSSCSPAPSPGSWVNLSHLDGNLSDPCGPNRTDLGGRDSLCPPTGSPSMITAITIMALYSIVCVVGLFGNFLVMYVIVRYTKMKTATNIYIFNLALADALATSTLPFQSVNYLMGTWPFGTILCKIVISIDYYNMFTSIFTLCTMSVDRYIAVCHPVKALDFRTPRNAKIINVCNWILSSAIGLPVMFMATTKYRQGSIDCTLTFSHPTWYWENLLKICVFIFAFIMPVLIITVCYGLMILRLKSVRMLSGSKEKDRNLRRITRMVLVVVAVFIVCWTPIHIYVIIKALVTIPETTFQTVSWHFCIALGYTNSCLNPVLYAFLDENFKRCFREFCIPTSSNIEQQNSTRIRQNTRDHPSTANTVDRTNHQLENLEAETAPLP
Chain of Delta-type opioid receptor (P41143 whole entry): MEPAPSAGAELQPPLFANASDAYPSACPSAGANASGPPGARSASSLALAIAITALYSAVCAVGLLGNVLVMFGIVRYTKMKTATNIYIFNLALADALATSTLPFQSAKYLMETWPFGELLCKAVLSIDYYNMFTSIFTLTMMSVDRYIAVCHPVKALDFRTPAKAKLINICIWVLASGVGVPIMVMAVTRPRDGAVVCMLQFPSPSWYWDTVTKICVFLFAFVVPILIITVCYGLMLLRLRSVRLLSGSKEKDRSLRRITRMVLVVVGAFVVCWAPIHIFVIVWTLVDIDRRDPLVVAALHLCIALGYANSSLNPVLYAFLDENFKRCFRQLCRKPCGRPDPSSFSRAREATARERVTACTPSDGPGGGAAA
Chain of CAAX prenyl protease 2 (Homo sapiens, UniProt Q9Y256) (Q9Y256 whole entry): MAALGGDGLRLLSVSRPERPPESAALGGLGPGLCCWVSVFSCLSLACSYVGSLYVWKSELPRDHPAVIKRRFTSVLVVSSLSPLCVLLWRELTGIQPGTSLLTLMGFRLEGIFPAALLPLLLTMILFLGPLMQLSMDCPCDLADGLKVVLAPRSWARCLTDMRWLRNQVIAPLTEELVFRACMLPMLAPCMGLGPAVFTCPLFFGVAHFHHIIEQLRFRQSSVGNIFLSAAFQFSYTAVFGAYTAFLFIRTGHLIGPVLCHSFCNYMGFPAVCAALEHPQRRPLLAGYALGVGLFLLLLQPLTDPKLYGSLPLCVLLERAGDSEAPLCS

With `Cc1ccccc1NC(S)=NCC(c1cccnc1)N(C)C` (stereo not drawn) as the compound, how does the EC50 (Mu-type opioid receptor) read?
Its EC50 is 12.5 µM (inactive).

What about the EC50 [1] of the same compound?
The EC50 was 0.0427 µM (active).

What about the EC50 [2] of the same compound?
The EC50 was 74.6 µM (inactive).

What about the EC50 [3] of the same compound?
Its EC50 is > 92.5 µM (inactive).

With `CCC1CCCCN1C(=O)c1cc(COc2ccc3ncccc3c2)on1` (stereo not drawn) as the compound, how does the IC50 [4] read?
Its IC50 is 0.339 µM (active).

And the AC50 (INS1)?
The AC50 was 1.89 µM (active).

And the AC50 [5]?
The AC50 was 0.46 µM (active).

What about the IC50 [6] of the same compound?
The IC50 was 0.444 µM (active).

What about the IC50 [7] of the same compound?
Its IC50 is 4.58 µM (active).

And the AC50 [8]?
The AC50 was 1.15 µM (active).

And the AC50 [9]?
The AC50 was 2.06 µM (active).

And the IC50 [10]?
Its IC50 is > 80 µM (inactive).

What does the source list for `Cc1[nH]c2ccccc2c1N=Nc1c(C)n(C)n(-c2ccccc2)c1=O`?
IC50 [11]: > 79.4 µM (inactive); IC50 [12]: 41.1 µM (active); IC50 [13]: > 79.4 µM (inactive); IC50 [14]: > 79.4 µM (inactive)

With `Cc1ccc(C)c(NC(S)=NCC(c2ccccc2)N(C)C)c1` (stereo not drawn) as the compound, how does the EC50 (Mu-type opioid receptor) read?
Its EC50 is 4.15 µM (active).

And the EC50 [1]?
The EC50 was 0.188 µM (active).

And the EC50 [2]?
Its EC50 is 50 µM (inactive).

What about the EC50 [3] of the same compound?
The EC50 was > 92.5 µM (inactive).

Which AC50 (CAAX prenyl protease 2 [15]) does the source give for `CCc1cc(=O)oc2c(C)c(OC(C)C(=O)NC3CC(C)(C)NC(C)(C)C3)ccc12` (stereo not drawn) here?
Its AC50 is 17.5 µM (active).

What about the AC50 (CAAX prenyl protease 2 [16]) of the same compound?
Its AC50 is 17 µM (active).

What about the AC50 (Trypsin) of the same compound?
The AC50 was 14.1 µM (active).
